Test results taken from US12509460B2 (Skyhawk Therapeutics, Inc., priority 2019, dated 2025).
Where two headings read alike, the source gives them in different places.

Legend:
[1] = Quantitative splicing assay (HTT), qPCR; assay type: cell-based, human; conditions: Homo sapiens, GM04724, 24 h, GM04724 lymphoblasts, read-out: HTT Splicing: E49-50 EC50
Protocol: Example A9: Quantitative Splicing Assay (HTT)
GM04724 (CAG 70/20) Huntington's disease patient lymphoblasts (Coriell) are plated in 96-well v-bottom plates at 50,000 cells/well. Immediately after plating, cells are dosed with compound for 24 h at concentrations ranging from 2.5 uM to 0.15 nM (0.1% DMSO). Treated cells are lysed and cDNA synthesized using the Fast Advanced Cells-to-Ct kit (Thermofisher A35378) according to the manufacturer's instructions. 2 uL of each cDNA are used in qPCR reactions to confirm the compound-induced inclusion of a cryptic exon within intron 49 of the Huntingtin (HTT) transcripts. The qPCR reactions are prepared in 384-well plates in 10 uL volume, using TagMan™ Fast Advanced Master Mix [ThermoFisher, 4444965] with primers and probes shown in the table below. Reactions are run in a Quant studio 6 qPCR instrument with default settings.

[2] = tested on: mHTT protein in GM04724 (CAG 70/20) Huntington's disease patient lymphoblast cells; experiment: mHTT protein assay, 2B7-MW1 assay via Mesoscale Discovery (MSD); assay type: cell-based, human
Outline: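 Patient lymphoblasts treated 48 h with compound from 10 μM to 0.6 nM. mHTT quantified by MSD 2B7-MW1 immunoassay, whose signal depends on polyQ expansion and HTT size. Viability measured on a replicate plate by CellTiter Glo.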

[3] = tested on: SMN FL and SMN Δ7 in spinal muscular atrophy (SMA) patient fibroblasts (GM03813, Coriell); experiment: Quantitative splicing assay (SMN), qPCR; assay type: cell-based, human; conditions: read-out: SMN2 Splicing FL EC50
Protocol: Spinal muscular atrophy (SMA) patient fibroblasts (GM03813, Coriell) are plated in 96-well plates at 50,000 cells/well. […] Treated cells are lysed and cDNA synthesized using the Fast Advanced Cells-to-Ct kit (Thermofisher A35378) according to the manufacturer's instructions. 2 μL of each cDNA are used in qPCR reactions. […] Reactions are run in a Quant Studio 6 qPCR instrument with default settings.

[4] = tested on: SMN protein in spinal muscular atrophy (SMA) patient fibroblasts (GM03813, Coriell); experiment: SMN protein assay, Mesoscale Discovery (MSD); assay type: cell-based, human; conditions: for EC50: read-out: SMN2 protein EC50
Outline: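 SMA patient fibroblasts (GM03813) seeded at 7000 cells/well and exposed to compound at 2.5 μM to 0.6 nM for 48 hours. Lysates assayed for SMN by MSD immunoassay, with absolute SMN amount calculated from a per-plate SMN standard curve (1 μg/ml to 19.5 pg/ml).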

MDR1 (P-gp) = experiment: Blood-brain-barrier (BBB) penetration potential via MDCK-MDR1 permeability assay; conditions: dog; for Papp A→B at 120 min, 5 μM: MDCK-MDR1, pH 7.4, MDCK-MDR1: Papp A-B; for Papp B→A at 120 min, 5 μM: MDCK-MDR1, pH 7.4, MDCK-MDR1: Papp B-A
Protocol: (§1) Example A13: Assessment of Blood-Brain-Barrier (BBB) Penetration Potential Via an MDCK-MDR1 Permeability Assay
(§2) The permeability of compounds is assessed for BBB penetration potential by use of an MDCK-MDR1 assay (Catalog EA203) performed by Absorption Systems, Exton PA.
(§3) Experimental Procedure: MDR1-MDCK cell monolayers are grown to confluence on collagen-coated, microporous membranes in 12-well assay plates. The permeability assay buffer is Hanks' balanced salt solution containing 10 mM HEPES and 15 mM glucose at a pH of 7.4. The buffer in the receiver chamber also contained 1% bovine serum albumin. The dosing solution concentration is 5 μM of test article in the assay buffer. Cell monolayers are dosed on the apical side (A-to-B) or basolateral side (B-to-A) and incubated at 37° C. with 5% CO2 in a humidified incubator. Samples are taken from the donor and receiver chambers at 120 minutes. Each determination is performed in duplicate. The flux of lucifer yellow is also measured post-experimentally for each monolayer to ensure no damage is inflicted to the cell monolayers during the flux period. All samples are assayed by LC-MS/MS using electrospray ionization.
(§4) The apparent permeability (Papp) and percent recovery are calculated as follows:
(§5) Analytical Method: Liquid Chromatography. Column: Waters ACQUITY UPLC BEH Phenyl 30 ×2.1 mm, 1.7 μm; M.P. Buffer. 25 mM ammonium formate buffer, pH 3.5; Aqueous Reservoir (A): 90% water, 10% buffer, Organic Reservoir (B): 90% acetonitrile, 10% buffer, Flow Rate: 0.7 mL/minute; Gradient Program:
(§6) • Total Run Time: 1.00 minute • Autosampler. 2 μL injection volume • Wash1: water/methanol/2-propanol:1/1/1; with 0.2% formic acid • Wash2: 0.1% formic acid in water • Brain Penetration • Potential Classification: A-B Papp≥3.0 and Efflux Ratio <3.0: High • A-B Papp≥3.0 and 10≥Efflux Ratio >3.0: Moderate • A-B Papp≥3.0 and Efflux Ratio≥10: Low • A-B Papp<3.0: Low

[5] = tested on: MDR1-MDCK cell monolayers; experiment: as above
Protocol: as §1, §2, §3, §4, §5, §6

MDR1 = experiment: as above; conditions: dog, MDCK-MDR1, pH 7.4, MDCK-MDR1: Efflux
Protocol: as §1, §2, §3, §4, §5, §6

[6] = GM04724 Huntington's disease patient lymphoblasts
[7] = Homo sapiens, Fibroblast, 24 h, SMA patient fibroblasts GM03813, 24 h, qPCR
[8] = SMA patient fibroblasts GM03813, 48 hours, MSD

| SMILES | EC50 ([1]; qPCR) [nM] | EC50 [2, 6] [nM] | EC50 [3, 7] [nM] | EC50 [4, 8] [nM] | Papp A→B at 120 min, 5 μM (MDR1 (P-gp); A-B direction) [×10⁻⁶ cm/s] | Papp B→A at 120 min, 5 μM (MDR1 (P-gp); B-A direction) [×10⁻⁶ cm/s] | MDCK-MDR1: % Recov A-B ([5]; A-B direction) [%] | MDCK-MDR1: % Recov B-A ([5]; B-A direction) [%] | efflux ratio at 120 min, 5 μM (MDR1; efflux ratio) | further results |
| --- | --- | --- | --- | --- | --- | --- | --- | --- | --- | --- |
| CN(c1ccc(-c2cc3oc(C(=O)N4CCC4)cc3cc2O)nn1)[C@H]1C[C@@H]2CC[C@@H](N2)[C@H]1F [Compound 112B, azetidin-1-yl(6-(6-(((1R,2R,3S,5S)-2-fluoro-8-azabicyclo[3.2.1]octan-3-yl)(methyl)amino)pyridazin-3-yl)-5-hydroxybenzofuran-2-yl)methanone] | – | – | – | – | – | – | – | – | – | EC50 [1]: 16 to 50 nM; EC50 ([2]; GM04724 (CAG 70/20) Huntington's disease patient lymphoblasts): 0.01 to 15 nM; EC50 ([3]; Homo sapiens, Fibroblast, 24 h, SMA patient fibroblasts (GM03813), 24 h): 0.01 to 15 nM; EC50 ([4]; SMA patient fibroblasts (GM03813), 48 hours): 0.01 to 15 nM; Papp A→B at 120 min, 5 μM (MDR1 (P-gp); A-B): 0.5 ×10⁻⁶ cm/s; Papp B→A at 120 min, 5 μM (MDR1 (P-gp); B-A): 47.3 ×10⁻⁶ cm/s; MDCK-MDR1: % Recov A-B ([5]; A-B): 98%; MDCK-MDR1: % Recov B-A ([5]; B-A): 81%; efflux ratio at 120 min, 5 μM (MDR1): 95 |
| CN(c1ccc(-c2cc3ncccc3cc2O)nn1)[C@@H]1C[C@H]2CCC[C@H](N2)[C@@H]1F [Compound 78A, 7-(6-(((1S,2S,3R,5R)-2-fluoro-9-azabicyclo[3.3.1]nonan-3-yl)(methyl)amino)pyridazin-3-yl)quinolin-6-ol] | 16 to 50 | 16 to 50 | 51 to 100 | 16 to 50 | 2.19 | 50.5 | 74 | 89 | 23 | – |
| CN(c1ccc(-c2ccc(-n3ccnn3)cc2O)nn1)[C@@H]1C[C@H]2CCC[C@H](N2)[C@@H]1F [Compound 62A, 2-(6-(((1S,2S,3R,5R)-2-fluoro-9-azabicyclo[3.3.1]nonan-3-yl)(methyl)amino)pyridazin-3-yl)-5-(1H-1,2,3-triazol-1-yl)phenol] | 0.01 to 15 | 0.01 to 15 | 16 to 50 | 16 to 50 | 3.37 | 61.4 | 113 | 109 | 18 | – |
| CN(c1ccc(-c2cc3ccncc3cc2O)nn1)[C@H]1C[C@@H]2CC[C@@H](N2)[C@H]1F (single isomer, unassigned) [Compound 87B] | 0.01 to 15 | 0.01 to 15 | 0.01 to 15 | 0.01 to 15 | 3.3 | 28.7 | 70 | 88 | 9 | – |
| COc1cc(-c2ccc(-c3ccc(N(C)[C@H]4CC5N[C@@H](C4)CC5(F)F)nn3)c(O)c2)cnn1 (single isomer, unassigned) [Compound 2B] | 0.01 to 15 | 0.01 to 15 | – | – | – | – | 54 | 84 | – | EC50 ([3]; SMA patient fibroblasts GM03813, 24 h, qPCR): 0.01 to 15 nM; SMN2 protein EC50 [4, 8]: E (501 ≤ E ≤ 10.000); MDCK-MDR1: Papp A-B ([5]; A-B direction): 9.99 10^−6, cm/s; MDCK-MDR1: Papp B-A ([5]; B-A direction): 52.8 10^−6, cm/s; MDCK-MDR1: Efflux ([5]; efflux ratio): 5 |
| CN(c1ccc(-c2ccc(-c3cnn(C(F)F)c3)cc2O)nn1)[C@@H]1C[C@H]2CC[C@H](N2)[C@@H]1F [Compound 20A, 5-(1-(difluoromethyl)-1H-pyrazol-4-yl)-2-(6-(((1S,2S,3R,5R)-2-fluoro-8-azabicyclo[3.2.1]octan-3-yl)(methyl)amino)pyridazin-3-yl)phenol] | 16 to 50 | 16 to 50 | – | 16 to 50 | 4.68 | 39.9 | 47 | 71 | 9 | – |
| Cc1nc2cc(O)c(-c3ccc(N(C)[C@H]4C[C@@H]5CC[C@@H](N5)[C@H]4F)nn3)cc2o1 (single isomer, unassigned) [Compound 40B] | 0.01 to 15 | 0.01 to 15 | 16 to 50 | – | 4.71 | 75.8 | 67 | 99 | 16 | – |
| CN(c1ccc(-c2ccc(-n3ccnc3)cc2O)nn1)[C@@H]1C[C@H]2CC(F)(F)[C@@H](C1)N2 [Compound 13A, 2-(6-(((1S,3R,5R)-6,6-difluoro-8-azabicyclo[3.2.1]octan-3-yl)(methyl)amino)pyridazin-3-yl)-5-(1H-imidazol-1-yl)phenol] | 0.01 to 15 | 16 to 50 | – | 0.01 to 15 | 8.7 | 50.5 | 92 | 86 | 6 | – |
| CN(c1ccc(-c2ccc(-c3cnn(C(F)F)c3)cc2O)nn1)[C@H]1C[C@@H]2CC[C@@H](N2)[C@H]1F [Compound 20B, 5-(1-(difluoromethyl)-1H-pyrazol-4-yl)-2-(6-(((1R,2R,3S,5S)-2-fluoro-8-azabicyclo[3.2.1]octan-3-yl)(methyl)amino)pyridazin-3-yl)phenol] | 0.01 to 15 | 0.01 to 15 | – | – | 3.59 | 39.2 | 45 | 65 | 11 | SMN2 protein EC50 [4, 8]: E (501 ≤ E ≤ 10.000) |
| CN(c1ccc(-c2ccc(-n3nccn3)cc2O)nn1)[C@H]1C[C@@H]2CCC[C@@H](N2)[C@H]1F [Compound 5B, 2-(6-(((1R,2R,3S,5S)-2-fluoro-9-azabicyclo[3.3.1]nonan-3-yl)(methyl)amino)pyridazin-3-yl)-5-(2H-1,2,3-triazol-2-yl)phenol] | 0.01 to 15 | 0.01 to 15 | – | 101 to 500 | 5.84 | 9.91 | 30 | 52 | 2 | – |
| CN(c1ccc(-c2ccc(-c3cnn(C)c3)cc2O)nn1)C1CC2COCC(N2)C1F (single isomer, unassigned) [Compound 80A] | 51 to 100 | 51 to 100 | – | 101 to 500 | 4.93 | 53.6 | 68 | 88 | 11 | – |
| CN(c1ccc(-c2ccc(-c3nnco3)cc2O)nn1)[C@@H]1C[C@H]2CC[C@H](N2)[C@@H]1F [Compound 44A, 2-(6-(((1S,2S,3R,5R)-2-fluoro-8-azabicyclo[3.2.1]octan-3-yl)(methyl)amino)pyridazin-3-yl)-5-(1,3,4-oxadiazol-2-yl)phenol] | 16 to 50 | 0.01 to 15 | – | 101 to 500 | 8.12 | 50.9 | 87 | 86 | 6 | – |
| CN(c1ccc(-c2cc3ccncc3s2)nn1)[C@@H]1C[C@H]2CC[C@H](N2)[C@@H]1F [Compound 65A, (1S,2S,3R,5R)-2-fluoro-N-methyl-N-(6-(thieno[2,3-c]pyridin-2-yl)pyridazin-3-yl)-8-azabicyclo[3.2.1]octan-3-amine] | 10 to 501 | 101 to 500 | – | 51 to 100 | 5.82 | 50.5 | 94 | 93 | 9 | – |
